Experimental data taken from patent publication US9174994B2, “Enhanced treatment regimens using mTor inhibitors” (INTELLIKINE LLC, priority 2011, dated 2015).

Experiment: Additional study: grade 3 or greater treatment-emergent adverse events
Assay type: in vivo, human

CC(C)n1nc(-c2ccc3oc(N)nc3c2)c2c(N)ncnc21 [compound A]
Grade 3 or greater TEAE: Anaemia (QD Dosing (N = 29)): 1 (3%)
Grade 3 or greater TEAE: Aspartate aminotransferase increase (QD Dosing (N = 29)): 0 (0%)
Grade 3 or greater TEAE: Asthenia (QD Dosing (N = 29)): 1 (3%)
Grade 3 or greater TEAE: Blood creatinine increase (QD Dosing (N = 29)): 0 (0%)
Grade 3 or greater TEAE: Deep vein thrombosis (QD Dosing (N = 29)): 0 (0%)
Grade 3 or greater TEAE: Diarrhoea (QD Dosing (N = 29)): 1 (3%)
Grade 3 or greater TEAE: Disease progression (QD Dosing (N = 29)): 0 (0%)
Grade 3 or greater TEAE: Fatigue (QD Dosing (N = 29)): 0 (0%)
Grade 3 or greater TEAE: Gamma-glutamyltransferase increase (QD Dosing (N = 29)): 0 (0%)
Grade 3 or greater TEAE: Hyperglycaemia (QD Dosing (N = 29)): 4 (14%)
Grade 3 or greater TEAE: Hypokalaemia (QD Dosing (N = 29)): 2 (7%)
Grade 3 or greater TEAE: Hyponatraemia (QD Dosing (N = 29)): 2 (7%)
Grade 3 or greater TEAE: Hypophsphataemia (QD Dosing (N = 29)): 0 (0%)
Grade 3 or greater TEAE: Lymphopenia (QD Dosing (N = 29)): 2 (7%)
Grade 3 or greater TEAE: Mucosal Inflammation (QD Dosing (N = 29)): 0 (0%)
Grade 3 or greater TEAE: Muscular weakness (QD Dosing (N = 29)): 0 (0%)
Grade 3 or greater TEAE: Nausea (QD Dosing (N = 29)): 0 (0%)
Grade 3 or greater TEAE: Neutropenia (QD Dosing (N = 29)): 0 (0%)
Grade 3 or greater TEAE: Pruritus (QD Dosing (N = 29)): 2 (7%)
Grade 3 or greater TEAE: Rash (QD Dosing (N = 29)): 7 (24%)
Grade 3 or greater TEAE: Thrombocytopenia (QD Dosing (N = 29)): 2 (7%)
Grade 3 or greater TEAE: Vomiting (QD Dosing (N = 29)): 0 (0%)
Patients Reporting at least one Grade 3 or greater TEAE (QD Dosing (N = 29)): 17 (59%)
Grade 3 or greater TEAE: Anaemia (QDx3d QW (N = 25)): 2 (8%)
Grade 3 or greater TEAE: Aspartate aminotransferase increase (QDx3d QW (N = 25)): 0 (0%)
Grade 3 or greater TEAE: Asthenia (QDx3d QW (N = 25)): 1 (4%)
Grade 3 or greater TEAE: Blood creatinine increase (QDx3d QW (N = 25)): 2 (8%)
Grade 3 or greater TEAE: Deep vein thrombosis (QDx3d QW (N = 25)): 1 (4%)
Grade 3 or greater TEAE: Diarrhoea (QDx3d QW (N = 25)): 1 (4%)
Grade 3 or greater TEAE: Disease progression (QDx3d QW (N = 25)): 0 (0%)
Grade 3 or greater TEAE: Fatigue (QDx3d QW (N = 25)): 0 (0%)
Grade 3 or greater TEAE: Gamma-glutamyltransferase increase (QDx3d QW (N = 25)): 1 (4%)
Grade 3 or greater TEAE: Hyperglycaemia (QDx3d QW (N = 25)): 4 (16%)
Grade 3 or greater TEAE: Hypokalaemia (QDx3d QW (N = 25)): 0 (0%)
Grade 3 or greater TEAE: Hyponatraemia (QDx3d QW (N = 25)): 0 (0%)
Grade 3 or greater TEAE: Hypophsphataemia (QDx3d QW (N = 25)): 3 (12%)
Grade 3 or greater TEAE: Lymphopenia (QDx3d QW (N = 25)): 2 (8%)
Grade 3 or greater TEAE: Mucosal Inflammation (QDx3d QW (N = 25)): 4 (16%)
Grade 3 or greater TEAE: Muscular weakness (QDx3d QW (N = 25)): 1 (4%)
Grade 3 or greater TEAE: Nausea (QDx3d QW (N = 25)): 1 (4%)
Grade 3 or greater TEAE: Neutropenia (QDx3d QW (N = 25)): 0 (0%)
Grade 3 or greater TEAE: Pruritus (QDx3d QW (N = 25)): 1 (4%)
Grade 3 or greater TEAE: Rash (QDx3d QW (N = 25)): 1 (4%)
Grade 3 or greater TEAE: Thrombocytopenia (QDx3d QW (N = 25)): 0 (0%)
Grade 3 or greater TEAE: Vomiting (QDx3d QW (N = 25)): 1 (4%)
Patients Reporting at least one Grade 3 or greater TEAE (QDx3d QW (N = 25)): 18 (72%)
Grade 3 or greater TEAE: Anaemia (QDx5d QW (N = 15)): 1 (7%)
Grade 3 or greater TEAE: Aspartate aminotransferase increase (QDx5d QW (N = 15)): 1 (7%)
Grade 3 or greater TEAE: Asthenia (QDx5d QW (N = 15)): 1 (7%)
Grade 3 or greater TEAE: Blood creatinine increase (QDx5d QW (N = 15)): 0 (0%)
Grade 3 or greater TEAE: Deep vein thrombosis (QDx5d QW (N = 15)): 0 (0%)
Grade 3 or greater TEAE: Diarrhoea (QDx5d QW (N = 15)): 0 (0%)
Grade 3 or greater TEAE: Disease progression (QDx5d QW (N = 15)): 0 (0%)
Grade 3 or greater TEAE: Fatigue (QDx5d QW (N = 15)): 2 (13%)
Grade 3 or greater TEAE: Gamma-glutamyltransferase increase (QDx5d QW (N = 15)): 1 (7%)
Grade 3 or greater TEAE: Hyperglycaemia (QDx5d QW (N = 15)): 1 (7%)
Grade 3 or greater TEAE: Hypokalaemia (QDx5d QW (N = 15)): 0 (0%)
Grade 3 or greater TEAE: Hyponatraemia (QDx5d QW (N = 15)): 0 (0%)
Grade 3 or greater TEAE: Hypophsphataemia (QDx5d QW (N = 15)): 2 (13%)
Grade 3 or greater TEAE: Lymphopenia (QDx5d QW (N = 15)): 1 (7%)
Grade 3 or greater TEAE: Mucosal Inflammation (QDx5d QW (N = 15)): 3 (20%)
